For series [1] the following is noted: cited from earlier work.
The conditions of series [2]: standard acid-base titration curve, FIG. 1.

Where two headings read alike, the source gives them in different places.

Here are results for 10 compounds from US8821891B2, “Live attenuated rotavirus vaccine for oral administration” (priority 2005, dated 2014).

What is called pKa is the negative logarithm of the acid dissociation constant. A high value points to a weaker acid or stronger base. In turn, `O=C(O)CCCCC(=O)O` [Adipic, adipic acid] gave a pKa in the series “physchem” of 4.91.

Compound `O=C(O)CCCC(=O)O` [Glutaric, glutaric acid] registered a pKa in “physchem” of 4.78.

As to `O=C(O)/C=C\C(=O)O` [Maleic, maleic acid], the pKa in “physchem” was determined as 4.07.

With `O=C(O)CC(O)C(=O)O` (centres unmarked) [Malic, malic acid], the pKa in “physchem” was found to be 4.22.

In the case of `CCC(=O)O` [Propinic, propionic acid], the “Toxicity (LD50 oral, in rat)” value in series [1] (oral) is 2600 mg/kg.

`O=C(O)CCC(=O)O` [Succinic, succinic acid] displayed a pKa in the series “physchem” of 4.9. Also, the “Toxicity (LD50 oral, in rat)” value in series [1] (in vivo, po) is 2260 mg/kg.

In the case of `CC(=O)[O-].[Na+]` [sodium acetate], the “useful antacid capacity between pH 4.0 and pH 7.0” value in series [2] is on record as 68.75%.

Consider `O=C([O-])CCCCC(=O)[O-].[Na+].[Na+]` [sodium adipate], for which the “useful antacid capacity between pH 4.0 and pH 7.0” value in series [2] is 72.50%.

Turning to `O=C([O-])CC(O)(CC(=O)[O-])C(=O)[O-].[Na+].[Na+].[Na+]` [sodium citrate], in series [2], the “useful antacid capacity between pH 4.0 and pH 7.0” value is listed as 57.70%.

Take `O=C([O-])CC(O)C(=O)[O-].[Na+].[Na+]` (centres unmarked) [sodium malate]: the “useful antacid capacity between pH 4.0 and pH 7.0” value in series [2] is on record as 41.25%.
